Source: patent US20220380432A1, “Acylated Calcitonin Mimetics” (KeyBioscience AG, priority 2018, published 2022)
Values belong to the molecule of their own block, whether it stands above or below them. Numbered stars: 1 amine (or outer) side, 2 acyl side, 3 side chain; on linkers, the order of the positions; unused ones are H or OH. Bridge positions count the residues as written; N and C are the ends. Square brackets hold non-standard residues; d marks the D form. Side chains are listed from the residue outwards. Ends that are not written are not given here. Peptide text beside a SMILES is read from it. * marks the point of attachment. C18 diacid = O=C(O)CCCCCCCCCCCCCCCCC(=O)*; γGlu = O=C(O)[C@H](CCC(=O)[*:2])N[*:1]; AEEA = NCCOCCOCC(=O)O; Aib = CC(C)(N)C(=O)O

What was measured:
20 week HFD SD rats = assay: Single dose food intake and body weight test in HFD SD rats (Examples 3, 4, 5, 8, 10, 12); format: in vivo, rat; conditions: for Food Intake ΔFOOD Sustained Attenuation (4 nmol/kg) Hours: Table 4.4: acylation linkers, backbone KBP-066, single s.c. dose 4 nmol/kg, HFD SD rats; for Food Intake ΔFOOD Sustained Attenuation (36 nmol/kg) Hours: 36 nmol/kg single dose
Excerpt: In the animal model studies, 12 week healthy Sprague Dawley (SD) rats were used to assess the potency of the acylated KBPs. In some examples they were fed normal chow during prior and during the tests, whereas in other examples, the 12 week healthy SD rats were fed high fat diet (HFD) for eight weeks prior to the test and for the duration of the test.
(§1) Rats were single caged four days prior to the test. Rats were randomized by weight into eleven groups (Vehicle (0.9% NaCl), KBPs (doses: 36 nmol/kg (150-157 μg/kg)). They were fasted overnight and then treated with a single dose of peptide or vehicle in the morning using subcutaneous administration. Food intake was monitored in the following intervals (0-4 hours, 4-24 hours, 24-48 hours . . . 144-168 hours). Body weight was measured at baseline and every 24 hours post s.c injection.
as §1, with “(doses: 4 nmol/kg (^17 μg/kg), 12 nmol/kg (^50 μg/kg) or” for “(doses:”, “([…]” for “(150-157”
Single high dose effect of A11/3 acylated variants of KBP-042 and KBP-066 on food intake and body weight in 20 week HFD SD rats. Rats were single caged four days prior to the test. Rats were randomized by weight into eleven groups (Vehicle (0.9% NaCl), KBPs (doses: 300 nmol/kg (^1000 μg/kg)).
The rats were fasted overnight and then treated with a single dose of peptide or vehicle in the morning using subcutaneous administration. Food intake was monitored in the following intervals (0-4 hours, 4-24 hours, 24-48 hours . . . […]). Body weight was measured at baseline and every 24 hours post s.c injection.
(§2) Rats were single caged four days prior to the test. Rats were randomized by weight into eight groups (Vehicle (0.9% NaCl), KBPs (doses: 3 nmol/kg (^10-11 μg/kg)). They were fasted overnight and then treated with a single dose of peptide or vehicle in the morning using subcutaneous administration. Food intake was monitored in the following intervals (0-4 hours, 4-24 hours, 24-48 hours, 48-72 hours, and 72-96 hours). Body weight was measured at baseline and at 4 hour, 24 hours, 48 hours, 72 hours and 96 hours post s.c injection.
as §2, with “4” for “3”, “s.c.” for “s.c”, “injection. Two backbones were tested, KBP-066 and KBP-021.” for “injection.”
as §2, with “4” for “3”, “(^13-14” for “(^10-11”

[1] = Thioflavin T (ThT) fibrillation screening assay; format: physicochemical; conditions: for Peptide Fibrillation Thioflavin T ΔFluorescence 18 h Assay Score: Table 4.4: acylation linkers, backbone KBP-066, tier from 18 h fluorescence signal, 37° C.
Procedure: Thioflavin T (T3516, Sigma). Assay stock ThT is prepared as a 10 mM solution in 5 mM sodium phosphate pH 7.2. Aliquots are stored, protected from light, at −20° C. Stock ThT is thawed and diluted just prior to use.
For the tested calcitonin mimetics (hereinafter referred to as “acylated KBPs” or simply “KBPs”), final buffer conditions are 10 mM Tris-HCl pH 7.5.
The final peptide concentration in the wells should be 100-200 μM, and the final ThT concentration should be 4 μM. ThT is added last (10 μL).
Thioflavin T assays were also conducted. Thioflavin T (ThT) is a dye widely used for the detection of amyloid fibrils. In the presence of fibrils, ThT has an excitation maximum at 450 nm and enhanced emission at 480 nm, whereas ThT is essentially non-fluorescent at these wavelengths when not bound to amyloid fibrils.
Thus, ThT in combination with a fluorescent plate reader is an ideal tool for screening large numbers of in vitro samples for the presence of amyloid fibrils. […]
The plate is loaded into a fluorescent plate reader, such as a SpectraMax with SoftMax Pro 7.0.2 software, and the template set to 37° C. with excitation wavelength at 450 nm and emission wavelength at 480 nm.
Plate reader should measure fluorescence every 10 minutes for 24 hours with a five-second plate shake before the first read and a three-second plate shake before all other reads. Alternatively, the plate is read after the following incubation times; 0, 1, 2, 4 and 24 hours.
Plot relative fluorescence units (RFU) as a function of time. Fibrillation is determined as an increase in RFU over baseline as described by Nielsen et. al.
In this filing four fibrillations tiers have been defined based on the 18 h fluorescence signal to get a single output that reflects the peptides fibrillation potential: None=<1000 RFU, Low=1000-3000 RFU, Medium=3000-10000, High=>10000

Amylin Receptor (AMY-R) = target: T1, Amylin Receptor (AMY-R) (Homo sapiens (Human), UniProt P30988); assay: cell-based or functional assay
T1 sequence 1: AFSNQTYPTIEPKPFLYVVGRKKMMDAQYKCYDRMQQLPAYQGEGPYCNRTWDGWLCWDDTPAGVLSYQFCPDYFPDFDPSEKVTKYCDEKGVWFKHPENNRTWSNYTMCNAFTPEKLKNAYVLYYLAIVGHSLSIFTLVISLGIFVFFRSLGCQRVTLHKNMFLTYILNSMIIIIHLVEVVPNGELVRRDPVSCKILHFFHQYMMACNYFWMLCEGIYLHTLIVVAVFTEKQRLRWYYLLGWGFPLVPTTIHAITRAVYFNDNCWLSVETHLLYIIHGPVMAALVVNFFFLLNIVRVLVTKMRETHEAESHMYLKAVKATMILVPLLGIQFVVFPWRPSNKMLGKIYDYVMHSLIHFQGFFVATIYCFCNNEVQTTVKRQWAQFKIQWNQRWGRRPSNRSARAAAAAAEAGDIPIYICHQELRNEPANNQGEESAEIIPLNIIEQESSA
T1 sequence 2: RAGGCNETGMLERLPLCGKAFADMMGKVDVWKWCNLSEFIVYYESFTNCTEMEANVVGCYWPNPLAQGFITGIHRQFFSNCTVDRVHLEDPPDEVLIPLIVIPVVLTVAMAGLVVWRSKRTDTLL

[2] = target: T2, Calcitonin Receptor (CTR) (Homo sapiens (Human), UniProt P30988); assay: cell-based or functional assay
T2 sequence: T1 sequence 1

Molecule: KBP-377: KBP-089 core, A32/3 acylation (Ac-CSNLSTCMLGRLSQDLHRLQTYPKTDVGANAPK; not fully specified (residue 33); ends and bridges not checked)
Food Intake ΔFOOD Sustained Attenuation (36 nmol/kg) Hours (20 week HFD SD rats): 72 h

Molecule: KBP-374: KBP-042 core with added C-terminal acylated lysine (A32 type, Table 1) (Ac-CSNLSTCVLGKLSQELHKLQTYPRTDVGANAPK; not fully specified (residue 33); ends and bridges not checked)
Food Intake ΔFOOD Sustained Attenuation (36 nmol/kg) Hours (20 week HFD SD rats): 72 h

Molecule: KBP-372: KBP-042 core, A11/3 acylation (Ac-CSNLSTCVLGKLSQELHKLQTYPRTDVGANAP-NH2; not fully specified (residue 11); ends and bridges not checked)
Food Intake ΔFOOD Sustained Attenuation (36 nmol/kg) Hours (20 week HFD SD rats): 96 h
protracted in vivo efficacy, high dose test (in words) (20 week HFD SD rats; single s.c. dose 300 nmol/kg): superior protracted in vivo efficacy that lasted for days

B1: KBP-374 (peptide)
peptide: Ac-CSNLSTCVLGKLSQELHKLQTYPRTDVGANAPK
modifications: not fully specified (residue 33); ends and bridges not checked
β-arrestin Fold Recruitment EC50 values (10^-09 M) (Amylin Receptor (AMY-R)): 0.151 µM
β-arrestin Fold Recruitment EC50 values (10^-9 M) [2]: 0.0492 µM
β-arrestin Prolonged CTR response (10 nM) tAUC value 0-72 h [2]: 1070

B2: KBP-377 (peptide)
peptide: Ac-CSNLSTCMLGRLSQDLHRLQTYPKTDVGANAPK
modifications: not fully specified (residue 33); ends and bridges not checked
β-arrestin Fold Recruitment EC50 values (10^-09 M) (Amylin Receptor (AMY-R)): 0.0731 µM
β-arrestin Fold Recruitment EC50 values (10^-9 M) [2]: 0.066 µM
β-arrestin Prolonged CTR response (10 nM) tAUC value 0-72 h [2]: 1400

B3: KBP-372 (peptide)
peptide: Ac-CSNLSTCVLGKLSQELHKLQTYPRTDVGANAP-NH2
modifications: not fully specified (residue 11); ends and bridges not checked
β-arrestin Fold Recruitment EC50 values (10^-09 M) (Amylin Receptor (AMY-R)): 0.0456 µM
β-arrestin Fold Recruitment EC50 values (10^-9 M) [2]: 0.0078 µM
β-arrestin Prolonged CTR response (10 nM) tAUC value 0-72 h [2]: 1300

Continued, in another order:

fibrillation tier (score in the ThT assay) ([1]; 18 h fluorescence signal): low
Peptide Fibrillation Thioflavin T ΔFluorescence 18 h Assay Score [1]: Low (Low=1000-3000 RFU)
Molecule: CC(=O)N[C@H]1CSSC[C@@H](C(=O)NC(C)(C)C(=O)N[C@@H](CC(C)C)C(=O)NCC(=O)N[C@@H](CCCCNC(=O)COCCOCCNC(=O)CC[C@H](NC(=O)CCCCCCCCCCCCCCCCC(=O)O)C(=O)O)C(=O)N[C@@H](CC(C)C)C(=O)N[C@@H](CO)C(=O)N[C@@H](CCC(N)=O)C(=O)N[C@@H](CC(=O)O)C(=O)N[C@@H](CC(C)C)C(=O)N[C@@H](Cc2c[nH]cn2)C(=O)N[C@@H](CCCNC(=N)N)C(=O)N[C@@H](CC(C)C)C(=O)N[C@@H](CCC(N)=O)C(=O)N[C@H](C(=O)N[C@@H](Cc2ccc(O)cc2)C(=O)N2CCC[C@H]2C(=O)N[C@@H](CCCCN)C(=O)N[C@H](C(=O)N[C@@H](CC(=O)O)C(=O)N[C@H](C(=O)NCC(=O)N[C@@H](C)C(=O)N[C@@H](CC(N)=O)C(=O)N[C@@H](C)C(=O)N2CCC[C@H]2C(N)=O)C(C)C)[C@@H](C)O)[C@@H](C)O)NC(=O)[C@H]([C@@H](C)O)NC(=O)[C@H](CO)NC(=O)[C@H](CC(C)C)NC(=O)[C@H](CC(N)=O)NC(=O)[C@H](CO)NC1=O [KBP-384] (Ac-CSNLSTC[Aib]LGK([AEEA-γGlu-C18 diacid])LSQDLHRLQTYPKTDVGANAP-NH2; disulfide 1-7 (inferred))
Food Intake ΔFOOD Sustained Attenuation (4 nmol/kg) Hours (20 week HFD SD rats): 72 h

Peptide Fibrillation Thioflavin T ΔFluorescence 18 h Assay Score [1]: None (None=<1000 RFU)
Molecule: CC(=O)N[C@H]1CSSC[C@@H](C(=O)NC(C)(C)C(=O)N[C@@H](CC(C)C)C(=O)NCC(=O)N[C@@H](CCCCNC(=O)COCCOCCNC(=O)COCCOCCNC(=O)COCCOCCNC(=O)CC[C@H](NC(=O)CCCCCCCCCCCCCCCCC(=O)O)C(=O)O)C(=O)N[C@@H](CC(C)C)C(=O)N[C@@H](CO)C(=O)N[C@@H](CCC(N)=O)C(=O)N[C@@H](CC(=O)O)C(=O)N[C@@H](CC(C)C)C(=O)N[C@@H](Cc2c[nH]cn2)C(=O)N[C@@H](CCCNC(=N)N)C(=O)N[C@@H](CC(C)C)C(=O)N[C@@H](CCC(N)=O)C(=O)N[C@H](C(=O)N[C@@H](Cc2ccc(O)cc2)C(=O)N2CCC[C@H]2C(=O)N[C@@H](CCCCN)C(=O)N[C@H](C(=O)N[C@@H](CC(=O)O)C(=O)N[C@H](C(=O)NCC(=O)N[C@@H](C)C(=O)N[C@@H](CC(N)=O)C(=O)N[C@@H](C)C(=O)N2CCC[C@H]2C(N)=O)C(C)C)[C@@H](C)O)[C@@H](C)O)NC(=O)[C@H]([C@@H](C)O)NC(=O)[C@H](CO)NC(=O)[C@H](CC(C)C)NC(=O)[C@H](CC(N)=O)NC(=O)[C@H](CO)NC1=O [KBP-385] (Ac-CSNLSTC[Aib]LGK([AEEA-AEEA-AEEA-γGlu-C18 diacid])LSQDLHRLQTYPKTDVGANAP-NH2; disulfide 1-7 (inferred))
Food Intake ΔFOOD Sustained Attenuation (4 nmol/kg) Hours (20 week HFD SD rats): 72 h
